In patent publication US20070140959A1, “Method of preparing rhenium-tricarbonyl complex and its precursor” (priority 2005, published 2007):

Tests used:
[1] = type: in vitro ADME, human
Protocol: The ^188Re-tricarbonyl histidine complex prepared in Embodiment 2 was dissolved in physiological saline to prepare 37 MBq/ml of a test solution. Of this solution, 25 μl of the solution was added to 475 μl of human plasma (sigma) and then cultured at 37° C. for 24 hours. After the lapse of 0.5, 1, 2, 4 and 24 hours, the fraction of solution was subjected to TLC measurement. As a development solvent, a solvent mixture comprising methanol and conc. hydrochloric acid mixed at a 99:1 ratio was used.
When the fraction of solution was developed, the labeled complex was shown in the developed portion, and the complex reacted with the plasma protein was shown in the zero point, which were confirmed through HPLC. The HPLC measurement was conducted in the same manner as in Experimental Example 2. In addition, the plasma protein binding was measured using an ITLC isotope scanner.

[2] = Stability of 188Re(I)-tricarbonyl precursor over time (HPLC); type: physicochemical; conditions: for 3 hours, then began to decay
Protocol: The HPLC measurement was conducted in order to separate the ^188Re (I)-tricarbonyl precursor synthesized in Embodiment 1.
The HPLC measurement was carried out with a WATERS system provided with a radiometric detector using methanol (hereinafter, referred to as ‘solvent A’) and 0.05 M triethylammoniumphosphate buffer (TEAP, pH 2.25, hereinafter referred to as ‘solvent B’) using two pumps each equipped with a reverse phase Xterra™ RP18 5 μm column (4.6×250 mm, Waters, Ireland).
The solvent conditions for HPLC were as follows: in the range of 0 to 5 minutes, 100% solvent A began to flow and was then converted into 100% solvent B; in the range of 5 to 8 minutes, 100% solvent B began to flow and was then converted into 25% solvent A and 75% solvent B; in the range of 8 to 11 minutes, 25% solvent A and 75% solvent B were converted into 34% solvent A and 66% solvent B; in the range of 11 to 22 minutes, 34% solvent A and 66% solvent B were converted into 100% solvent A; and in the range of 22 to 24 minutes, 100% solvent A was converted into 100% solvent B. The flow rate of solvent was maintained at 1 ml/min for the entire time. In addition, in order to rapidly bring the column to a state of equilibrium, during the next 5 min, the solvent was supplied at 2 ml/min for 2 minnutes and then at the former solvent flow rate for 3 min. […]

Substance	plasma stability (in words) [1]	fraction of precursor stable [2] [%]
^188Re (I)-tricarbonyl histidine complex [^188Re-tricarbonyl histidine complex]	high plasma stability	
^188Re-tricarbonyl precursor [^188Re (I)-tricarbonyl precursor]		≥ 95
